# Active and inactive are the calls of the source. The calls are words filed in the database; no cut-off is given here.
# Legend:
# [1] = system: Mus musculus; experiment: Growth inhibition of Swiss Albino mouse bearing EAT cells assessed as reduction in cell numbers at 100 mg/kg, ip relative to control; type: functional, organism-based; design: dose 100 mg/kg
# [2] = system: Mus musculus; experiment: Growth inhibition of Swiss Albino mouse bearing EAT cells assessed as increase in median survival time at 100 mg/kg, ip; type: functional; conditions: route intraperitoneal
# [3] = system: Mus musculus; experiment: Antiangiogenic effect in Swiss Albino mouse bearing EAT cells assessed as inhibition of blood vessel formation in at 100 mg/kg, ip; type: functional; conditions: route intraperitoneal
# [4] = system: Mus musculus; experiment: Growth inhibition of Swiss Albino mouse bearing EAT cells assessed as increase in life span at 100 mg/kg, ip administered on day 11 after tumor inoculation; type: functional; design: scale not given: the % may be the effect or the level left; conditions: route intraperitoneal
# [5] = system: Mus musculus; experiment: Growth inhibition of Swiss Albino mouse bearing EAT cells assessed as increase in life span at 100 mg/kg, ip; type: functional; design: scale not given: the % may be the effect or the level left; conditions: route intraperitoneal
# [6] = species on record: Mus musculus; experiment: Antiangiogenic effect in Swiss Albino mouse bearing EAT cells assessed as decrease in microvessel density by CAM assay; type: functional, organism-based
# [7] = system: Mus musculus; experiment: Growth inhibition of Swiss Albino mouse bearing EAT cells assessed as decrease in ascites volume at 100 mg/kg, ip relative to control; type: functional, organism-based; design: dose 100 mg/kg
# [8] = system: Mus musculus; experiment: Growth inhibition of Swiss Albino mouse bearing EAT cells assessed as increase in life span at 100 mg/kg, ip administered on day 7 after tumor inoculation; type: functional; design: scale not given: the % may be the effect or the level left; conditions: route intraperitoneal
# [9] = system: Mus musculus; experiment: Growth inhibition of Swiss Albino mouse bearing EAT cells assessed as increase in life span at 100 mg/kg, ip administered on day 9 after tumor inoculation; type: functional; design: scale not given: the % may be the effect or the level left; conditions: route intraperitoneal
SMILES,Activity [1],Survival [2] [days],Activity [3],Activity [4] [%],Activity [5] [%],Activity [6],Activity [7],Activity [8] [%],Activity [9] [%]
Cc1cc(/C=C/C(=O)/C=C/c2ccc(OC3CC3)c(C)c2)ccc1OC1CC1,Active,23.2,4.4,28.8,28.8,Active,Active,,
COc1cc(/C=C/C(=O)/C=C/c2ccc(OC3CC3)c(OC)c2)ccc1OC1CC1,Active,26.8,3,,48.8,Active,Active,48.8,
COc1cc(/C=C/C(=O)/C=C/c2cc(OC)c(OC3CC3)c(OC)c2)cc(OC)c1OC1CC1,Active,32,2.8,,77.7,Active,Active,,
O=C(/C=C/c1ccc(OC2CC2)cc1)/C=C/c1ccc(OC2CC2)cc1,Active,24.2,4.2,,34.4,Active,Active,,34.4
